Source: paper PMC5601486, “Identification of 4-phenylquinolin-2(1H)-one as a specific allosteric inhibitor of Akt” (Scientific Reports, 2017)

Legend:
Akt S473 phosphorylation = assay: pS473-Akt HTRF assay; assay type: cell-based, Mouse
Description: Neuro 2A cells were seeded (4,000 cells/well) in 4 µL of DMEM with 0.5% FBS and 1x Penicillin/Streptomycin in white solid bottom tissue-culture treated 1536-well plates (Greiner, 789173-F) with MultiDrop Combi Dispenser (Thermo Scientific). The cells were incubated for 24 h at 37 °C, 5% CO2, 95% humidity. Twenty-three nL of tested compounds were transferred to each well with an automated pin-tool station (Kalypsys). Following incubation for 15 min at 37 °C, 0.5 µL IGF (500 ng/mL of final concentration) was added and incubated for additional 40 min at 37 °C. After the addition of 1.5 µL 4x lysis buffer and 15-min incubation at room temperature (25 °C), 2 µL of HTRF® conjugated antibodies (fluorophore d2 conjugated anti-Akt monoclonal antibody and Europium^3+ cryptate-labeled anti-pS473-Akt monoclonal antibody, obtained from CisBio, 1:80 dilution) were added with BioRAPTR FRD™ (Beckman Coulter). The plates were incubated at room temperature for 20 h. The signal was measured by EnVision Multilabel Plate Reader (PerkinElmer) with excitation at 330 nm, emission at 620 nm (donor) and 665 nm (acceptor). Results were calculated and analyzed in a format of the ratio 665 nm/620 nm multiplied by 10^4.
Relative activity was calculated by normalizing each HTRF signal from each sample well to the mean HTRF signal from the DMSO-only control wells.
The Library of Pharmacologically Active Compounds (LOPAC, 1280 compounds) and the Molecular Library Small Molecular Repository Library (MLSMR, 373,868 compounds) were obtained from Sigma-Aldrich.
Quantitative HTS (qHTS) and curve response class classification
The qHTS screen was performed as described previously1. Each compound was titrated in seven concentrations. The final concentrations of the compounds assayed ranged from 4.9 nM to 76.6 µM. The curve response classifications (CRC), which can be used to depict potency, efficacy and reliability of the data, and to estimate an IC50 value, were determined by a customized software2. […]
Sigma-Aldrich) and the basal response (0% inhibition) was set to the DMSO control.
Efficacy of a compound refers to the highest response normalized to the maximal response of LY. The CRCs were grouped into 4 categories. Class 1 are well-fit and have both upper and lower asymptotes with efficacy greater than 30%
(Class1.1, >80% efficacy; Class 1.2; 30-80% efficacy). Class 2 are incomplete with only one asy mptote (Class 2.1, > 80% efficacy; Class 2.2, 30-80% % efficacy). Class 3 display activity only at the highest concentrations and efficacy >30%. Class 4 are with low efficacy (<30%) or no response and considered inactive3.

PKNB(M.tuberculosis) = system: T1, PKNB(M.tuberculosis); assay: KINOMEscan; assay type: binding; settings: 50000 nM
T1 construct: purchased DiscoveRx KINOMEscan

EGFR(G719S) = assay: KINOMEscan; settings: 50000 nM
Description: KINOMEscan™ selectivity screen
(§1) The assay was perfor med at DiscoveRx Corporation according the methods published previously5. Briefly, Kinase-tagged T7 phage strains were grown in parallel in an E. coli host derived from the BL21 strain. E. coli were grown to log-phase and infected with T7 phage from a frozen stock and incubated with shaking at 32°C until lysis (90-150 minutes). The kinases were produced in HEK-293 cells and subsequently tagged with DNA for qPCR detection. Streptavidin-coated magnetic beads were treated with biotinylated small molecule ligands to generate affinity resins for kinase
(§2) inhibitor or DMSO control was performed in polypropylene 384-well plates for 1 hr at room temperature. After wash with PBS buffer containing 0.05% Tween 20, the beads were incubated in elution buffer (PBS containing 0.05 % Tween 20 and 0.5 μM non-biotinylated affinity ligand) for 30 minutes at room temperature. The kinase concentration in the eluates was measured by qPCR.

EPHA2 = assay: KINOMEscan; settings: 50000 nM
Description: KINOMEscan™ selectivity screen
(§3) Briefly, Kinase-tagged T7 phage strains were grown in parallel in an E. coli host derived from the BL21 strain. E. coli were grown to log-phase and infected with T7 phage from a frozen stock and incubated with shaking at 32°C until lysis (90-150 minutes). The kinases were produced in HEK-293 cells and subsequently tagged with DNA for qPCR detection. Streptavidin-coated magnetic beads were treated with biotinylated small molecule ligands to generate affinity resins for kinase
as §2

p38-beta = assay: KINOMEscan; settings: 50000 nM
Description: KINOMEscan™ selectivity screen
as §1, §2

ADCK4 = assay: KINOMEscan; settings: 50000 nM
Description: KINOMEscan™ selectivity screen
as §1, §2

FGFR4 = assay: KINOMEscan; settings: 50000 nM
Description: KINOMEscan™ selectivity screen
(§4) The assay was perfor med at DiscoveRx Corporation according the methods published previously5. […] The kinases were produced in HEK-293 cells and subsequently tagged with DNA for qPCR detection. Streptavidin-coated magnetic beads were treated with biotinylated small molecule ligands to generate affinity resins for kinase
as §2

RIOK1 = assay: KINOMEscan; settings: 50000 nM
Description: KINOMEscan™ selectivity screen
as §1, §2

TNNI3K = assay: KINOMEscan; settings: 50000 nM
Description: KINOMEscan™ selectivity screen
as §1, §2

EPHB1 = assay: KINOMEscan; settings: 50000 nM
Description: KINOMEscan™ selectivity screen
as §3, §2

MYLK = assay: KINOMEscan; settings: 50000 nM
Description: KINOMEscan™ selectivity screen
as §1, §2

ERK1 = assay: KINOMEscan; settings: 50000 nM
Description: KINOMEscan™ selectivity screen
as §1, §2

CHEK1 = assay: KINOMEscan; settings: 50000 nM
Description: KINOMEscan™ selectivity screen
as §1, §2

EGFR(S752-I759del) = assay: KINOMEscan; settings: 50000 nM
Description: KINOMEscan™ selectivity screen
as §1, §2

DAPK2 = assay: KINOMEscan; settings: 50000 nM
Description: KINOMEscan™ selectivity screen
as §1, §2

SGK3 = assay: KINOMEscan; settings: 50000 nM
Description: KINOMEscan™ selectivity screen
as §1, §2

PIK3CA = assay: KINOMEscan; settings: 50000 nM
Description: KINOMEscan™ selectivity screen
as §1, §2

PIK3CA(E542K) = assay: KINOMEscan; settings: 50000 nM
Description: KINOMEscan™ selectivity screen
as §1, §2

MAPKAPK5 = assay: KINOMEscan; settings: 50000 nM
Description: KINOMEscan™ selectivity screen
as §1, §2

PFTAIRE2 = assay: KINOMEscan; settings: 50000 nM
Description: KINOMEscan™ selectivity screen
as §1, §2

CAMKK1 = assay: KINOMEscan; settings: 50000 nM
Description: KINOMEscan™ selectivity screen
as §1, §2

FGFR2 = assay: KINOMEscan; settings: 50000 nM
Description: KINOMEscan™ selectivity screen
as §1, §2

KIT(A829P) = assay: KINOMEscan; settings: 50000 nM
Description: KINOMEscan™ selectivity screen
as §1, §2

MST2 = assay: KINOMEscan; settings: 50000 nM
Description: KINOMEscan™ selectivity screen
as §4, §2

JNK1 = assay: KINOMEscan; settings: 50000 nM
Description: KINOMEscan™ selectivity screen
as §1, §2

[1] = system: ABL1(F317I)-nonphosphorylated; assay: KINOMEscan; settings: 50000 nM
Description: KINOMEscan™ selectivity screen
as §1, §2

ICK = assay: KINOMEscan; settings: 50000 nM
Description: KINOMEscan™ selectivity screen
as §3, §2

MKNK2 = assay: KINOMEscan; settings: 50000 nM
Description: KINOMEscan™ selectivity screen
as §3, §2

MST3 = assay: KINOMEscan; settings: 50000 nM
Description: KINOMEscan™ selectivity screen
as §1, §2

INSR = assay: KINOMEscan; settings: 50000 nM
Description: KINOMEscan™ selectivity screen
as §4, §2

TRKB = assay: KINOMEscan; settings: 50000 nM
Description: KINOMEscan™ selectivity screen
as §4, §2

SRPK1 = assay: KINOMEscan; settings: 50000 nM
Description: KINOMEscan™ selectivity screen
as §1, §2

CSNK1E = assay: KINOMEscan; settings: 50000 nM
Description: KINOMEscan™ selectivity screen
as §1, §2

[2] = system: TYK2(JH2domain-pseudokinase); assay: KINOMEscan; settings: 50000 nM
Description: KINOMEscan™ selectivity screen
as §1, §2

## Oc1cc(-c2ccccc2)c2ccccc2n1 [G7, 4-phenylquinolin-2(1H)-one]
Akt S473 phosphorylation; Mus musculus, N2a, Neuro 2A cells, inhibitor 15 min before IGF, read-out: IC50
  IC50: ~20 µM
Akt S473 phosphorylation; compared to that of 100 µM LY
  maximum inhibition: 50%
PKNB(M.tuberculosis)
  Percent Control: 43%
EGFR(G719S)
  Percent Control: 100%
EPHA2
  Percent Control: 100%
p38-beta
  Percent Control: 97%
ADCK4
  Percent Control: 96%
FGFR4
  Percent Control: 96%
RIOK1
  Percent Control: 95%
TNNI3K
  Percent Control: 95%
EPHB1
  Percent Control: 91%
MYLK
  Percent Control: 90%
ERK1
  Percent Control: 89%
CHEK1
  Percent Control: 85%
EGFR(S752-I759del)
  Percent Control: 85%
DAPK2
  Percent Control: 83%
SGK3
  Percent Control: 83%
PIK3CA
  Percent Control: 82%
PIK3CA(E542K)
  Percent Control: 82%
MAPKAPK5
  Percent Control: 81%
PFTAIRE2
  Percent Control: 81%
CAMKK1
  Percent Control: 80%
FGFR2
  Percent Control: 80%
KIT(A829P)
  Percent Control: 78%
MST2
  Percent Control: 76%
JNK1
  Percent Control: 75%
[1]
  Percent Control: 71%
ICK
  Percent Control: 71%
MKNK2
  Percent Control: 65%
MST3
  Percent Control: 59%
INSR
  Percent Control: 56%
TRKB
  Percent Control: 56%
SRPK1
  Percent Control: 47%
CSNK1E
  Percent Control: 15%
[2]
  Percent Control: 15%
